Target: PI3K delta (Homo sapiens, UniProt O00329)
Assay: Luciferase-coupled chemiluminescence kinase assay (ATP consumption, KinaseGlo)
Format: biochemical
In short: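 Compound, kinase and ATP (≤ KM) reacted 2 h at ambient temperature, then remaining ATP quantified with luciferase-luciferin (KinaseGlo) luminescence as percent consumed.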

PI3K delta, sequence (O00329 whole entry): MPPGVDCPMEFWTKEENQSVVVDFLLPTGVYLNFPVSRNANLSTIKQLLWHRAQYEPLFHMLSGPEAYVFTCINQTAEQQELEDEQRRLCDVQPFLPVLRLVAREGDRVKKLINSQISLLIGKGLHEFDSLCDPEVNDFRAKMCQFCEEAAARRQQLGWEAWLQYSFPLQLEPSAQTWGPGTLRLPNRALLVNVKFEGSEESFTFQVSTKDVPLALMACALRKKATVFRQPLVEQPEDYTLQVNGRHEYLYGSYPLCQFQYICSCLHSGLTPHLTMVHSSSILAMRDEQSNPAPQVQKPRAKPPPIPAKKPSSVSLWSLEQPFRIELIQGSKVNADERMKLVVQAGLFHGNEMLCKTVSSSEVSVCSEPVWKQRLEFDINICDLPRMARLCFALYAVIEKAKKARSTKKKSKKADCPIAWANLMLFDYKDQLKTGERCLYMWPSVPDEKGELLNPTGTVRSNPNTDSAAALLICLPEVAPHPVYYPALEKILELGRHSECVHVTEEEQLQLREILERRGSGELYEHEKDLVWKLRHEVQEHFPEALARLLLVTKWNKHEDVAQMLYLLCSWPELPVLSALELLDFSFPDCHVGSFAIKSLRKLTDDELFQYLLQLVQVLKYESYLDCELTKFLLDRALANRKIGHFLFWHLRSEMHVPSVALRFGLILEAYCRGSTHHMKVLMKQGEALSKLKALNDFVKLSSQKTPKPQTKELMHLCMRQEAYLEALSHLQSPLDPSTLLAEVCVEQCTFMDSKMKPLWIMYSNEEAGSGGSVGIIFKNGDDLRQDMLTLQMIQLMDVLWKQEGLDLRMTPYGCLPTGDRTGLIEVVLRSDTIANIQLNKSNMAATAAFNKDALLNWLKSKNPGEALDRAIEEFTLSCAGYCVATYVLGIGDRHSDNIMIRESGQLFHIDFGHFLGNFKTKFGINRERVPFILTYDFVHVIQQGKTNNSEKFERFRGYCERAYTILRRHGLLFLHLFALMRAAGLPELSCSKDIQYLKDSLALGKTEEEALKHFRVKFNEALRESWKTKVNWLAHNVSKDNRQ
PI3K delta, sequence (P27986 whole entry partner): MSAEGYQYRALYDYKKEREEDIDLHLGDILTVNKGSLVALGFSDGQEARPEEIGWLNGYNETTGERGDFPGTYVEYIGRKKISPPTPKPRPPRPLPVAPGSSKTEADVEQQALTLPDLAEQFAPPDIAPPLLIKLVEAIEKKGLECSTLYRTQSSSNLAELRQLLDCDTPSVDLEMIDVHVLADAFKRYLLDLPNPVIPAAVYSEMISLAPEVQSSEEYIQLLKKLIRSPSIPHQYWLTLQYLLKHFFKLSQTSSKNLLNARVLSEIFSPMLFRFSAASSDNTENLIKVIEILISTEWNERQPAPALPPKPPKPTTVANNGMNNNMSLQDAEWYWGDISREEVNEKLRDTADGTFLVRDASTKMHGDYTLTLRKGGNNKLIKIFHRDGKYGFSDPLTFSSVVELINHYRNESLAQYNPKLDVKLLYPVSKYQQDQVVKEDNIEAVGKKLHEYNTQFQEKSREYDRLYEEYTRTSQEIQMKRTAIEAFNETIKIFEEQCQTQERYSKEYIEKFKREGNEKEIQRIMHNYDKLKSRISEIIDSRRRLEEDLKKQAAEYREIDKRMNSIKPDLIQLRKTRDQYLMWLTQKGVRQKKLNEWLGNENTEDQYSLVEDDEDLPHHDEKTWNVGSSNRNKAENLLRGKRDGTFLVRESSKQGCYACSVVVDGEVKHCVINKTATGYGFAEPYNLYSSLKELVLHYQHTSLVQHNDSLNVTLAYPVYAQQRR

IC50 [nM]	SMILES
< 50	CCn1cc(-c2nc3c(N4CCC(n5c(=O)[nH]c6ncccc65)CC4)ncnc3n2C)cn1 [Compound 322, 1-{1-[8-(1-ethyl-1H-pyrazol-4-yl)-9-methyl-9H-purin-6-yl]piperidin-4-yl}-1,3-dihydro-2H-imidazo[4,5-b]pyridin-2-one]
50 to 250	Cn1c(C(=O)NCC2CC2)nc2c(N3CCC(n4c(=O)[nH]c5c(Cl)cccc54)CC3)ncnc21 [Compound 230, 6-[4-(4-chloro-2-oxo-2,3-dihydro-1H-benzimidazol-1-yl)piperidin-1-yl]-N-(cyclopropylmethyl)-9-methyl-9H-purine-8-carboxamide]
250 to 500	Cc1cccc(Cl)c1S(=O)(=O)N1CCN(c2ncnc3c2nc(-c2cnn(C)c2)n3C)CC1 [Compound 386, 6-{4-[(2-chloro-6-methylphenyl)sulfonyl]piperazin-1-yl)-9-methyl-8-(1-methyl-1H-pyrazol-4-yl)-9H-purine]
250 to 500	Cn1cc(-c2nc3c(N4CCN(S(=O)(=O)c5cccc(C#N)c5)CC4)ncnc3n2C)cn1 [Compound 382, 3-({4-[9-methyl-8-(1-methyl-1H-pyrazol-4-yl)-9H-purin-6-yl]piperazin-1-yl)sulfonyl)benzonitrile]
500 to 1500	Cn1c(C(=O)NCCc2ccccc2)nc2c(N3CCC4(CC3)C(=O)Nc3ccccc34)ncnc21 [Compound 395, 9-methyl-6-(2-oxo-1,2-dihydro-1′H-spiro[indole-3,4′-piperidin]-1′-yl)-N-(2-phenylethyl)-9H-purine-8-carboxamide]
< 50	CCn1c(C(=O)NC(C)C)nc2c(N3CCC(n4c(=O)[nH]c5ccccc54)CC3)ncnc21 [Compound 196, 9-ethyl-N-(1-methylethyl)-6-[4-(2-oxo-2,3-dihydro-1H-benzimidazol-1-yl)piperidin-1-yl]-9H-purine-8-carboxamide]
< 50	CCCNC(=O)c1nc2c(N3CCC4(CC3)C(=O)Nc3ccccc34)ncnc2n1CC [Compound 220, 9-ethyl-6-(2-oxo-1,2-dihydro-1′H-spiro[indole-3,4′-piperidin]-1′-yl)-N-propyl-9H-purine-8-carboxamide]
500 to 1500	Cc1nc(C(F)(F)F)ccc1-c1nc2c(N3CCC(n4c(=O)[nH]c5ccccc54)CC3)ncnc2n1C [Compound 284, 1-(1-{9-methyl-8-[2-methyl-6-(trifluoromethyl)pyridin-3-yl]-9H-purin-6-yl}piperidin-4-yl)-1,3-dihydro-2H-benzimidazol-2-one]
< 50	Cc1[nH]ncc1-c1nc2c(N3CCC4(CC3)C(=O)Nc3ccccc34)ncnc2n1C [Compound 247, 1′-[9-methyl-8-(5-methyl-1H-pyrazol-4-yl)-9H-purin-6-yl]spiro[indole-3,4′-piperidin]-2(1H)-one]
500 to 1500	Cn1c(CNC(=O)OC(C)(C)C)nc2c(N3CCC(n4c(=O)[nH]c5ccccc54)CC3)ncnc21 [Compound 339, 1,1-dimethylethyl ({9-methyl-6-[4-(2-oxo-2,3-dihydro-1H-benzimidazol-1-yl)piperidin-1-yl]-9H-purin-8-yl}methyl)carbamate]
250 to 500	Cn1cc(-c2nc3c(N4CCN(S(=O)(=O)c5cccc(Cl)c5Cl)CC4)ncnc3n2C)cn1 [Compound 389, 6-{4-[(2,3-dichlorophenyl)sulfonyl]piperazin-1-yl}-9-methyl-8-(1-methyl-1H-pyrazol-4-yl)-9H-purine]
500 to 1500	Cn1c(C(=O)NCC2CC2)nc2c(N3CCN(C4=NS(=O)(=O)c5ccccc54)CC3)ncnc21 [Compound 264, N-(cyclopropylmethyl)-6-[4-(1,1-dioxido-1,2-benzisothiazol-3-yl)piperazin-1-yl]-9-methyl-9H-purine-8-carboxamide]
500 to 1500	Cn1cc(-c2nc3c(N4CCN(S(=O)(=O)c5cccnc5Cl)CC4)ncnc3n2C)cn1 [Compound 390, 6-{4-[(2-chloropyridin-3-yl)sulfonyl]piperazin-1-yl}-9-methyl-8-(1-methyl-1H-pyrazol-4-yl)-9H-purine]
250 to 500	Cc1ccc2[nH]c(=O)n(C3CCN(c4ncnc5c4nc(C(=O)NCC4CC4)n5C)CC3)c2c1 [Compound 206, N-(cyclopropylmethyl)-9-methyl-6-[4-(6-methyl-2-oxo-2,3-dihydro-1H-benzimidazol-1-yl)piperidin-1-yl]-9H-purine-8-carboxamide]
< 50	Cn1c(-c2ccc(Cl)nc2)nc2c(N3CCC(n4c(=O)[nH]c5ccccc54)CC3)ncnc21 [Compound 283, 1-{1-[8-(6-chloropyridin-3-yl)-9-methyl-9H-purin-6-yl]piperidin-4-yl}-1,3-dihydro-2H-benzimidazol-2-one]

The remaining lines, values behind:

SMILES	IC50 [nM]
CCn1c(C(=O)N2CCC(F)(F)C2)nc2c(N3CCC(n4c(=O)[nH]c5ccccc54)CC3)ncnc21 [Compound 191, 1-(1-{8-[(3,3-difluoropyrrolidin-1-yl)carbonyl]-9-ethyl-9H-purin-6-yl}piperidin-4-yl)-1,3-dihydro-2H-benzimidazol-2-one]	< 50
Cn1c(-n2cccc2)nc2c(N3CCC(n4c(=O)[nH]c5ccccc54)CC3)ncnc21 [Compound 127, 1-{1-[9-methyl-8-(1H-pyrrol-1-yl)-9H-purin-6-yl]piperidin-4-yl}-1,3-dihydro-2H-benzimidazol-2-one]	500 to 1500
CCCNC(=O)c1nc2c(N3CCC(n4c(=O)[nH]c5ccccc54)CC3)ncnc2n1CC [Compound 193, 9-ethyl-6-[4-(2-oxo-2,3-dihydro-1H-benzimidazol-1-yl)piperidin-1-yl]-N-propyl-9H-purine-8-carboxamide]	< 50
Cn1c(C(=O)NC2CCc3ccccc32)nc2c(N3CCC4(CC3)C(=O)Nc3ccccc34)ncnc21 (stereo not drawn) [Compound 18, N-(2,3-dihydro-1H-inden-1-yl)-9-methyl-6-(2-oxo-1,2-dihydro-1′H-spiro[indole-3,4′-piperidin]-1′-yl)-9H-purine-8-carboxamide]	250 to 500
Cn1c(-c2cocn2)nc2c(N3CCC(n4c(=O)[nH]c5ccccc54)CC3)ncnc21 [Compound 179, 1-{1-[9-methyl-8-(1,3-oxazol-4-yl)-9H-purin-6-yl]piperidin-4-yl}-1,3-dihydro-2H-benzimidazol-2-one]	500 to 1500
CCn1c(C(=O)N2CC(F)(F)C2)nc2c(N3CCC(n4c(=O)[nH]c5ccccc54)CC3)ncnc21 [Compound 189, 1-(1-{8[(3,3-difluoroazetidin-1-yl)carbonyl]-9-ethyl-9H-purin-6-yl}piperidin-4-yl)-1,3-dihydro-2H-benzimidazol-2-one]	< 50
C#CCNC(=O)c1nc2c(N3CCC(n4c(=O)[nH]c5ccccc54)CC3)ncnc2n1C [Compound 139, 9-methyl-6-[4-(2-oxo-2,3-dihydro-1H-benzimidazol-1-yl)piperidin-1-yl]-N-prop-2-yn-1-yl-9H-purine-8-carboxamide]	50 to 250
CCCNC(=O)c1nc2c(N3CCC4(CC3)C(=O)Nc3ccccc34)ncnc2n1C [Compound 36, 9-methyl-6-(2-oxo-1,2-dihydro-1′H-spiro[indole-3,4′-piperidin]-1′-yl)-N-propyl-9H-purine-8-carboxamide]	50 to 250
Cn1c(C(=O)NC2CCOCC2)nc2c(N3CCC4(CC3)C(=O)Nc3ccccc34)ncnc21 [Compound 86, 9-methyl-6-(2-oxo-1,2-dihydro-1′H-spiro[indole-3,4′-piperidin]-1′-yl)-N-(tetrahydro-2H-pyran-4-yl)-9H-purine-8-carboxamide]	50 to 250
CCc1nnc(-c2nc3c(N4CCC(n5c(=O)[nH]c6ccccc65)CC4)ncnc3n2C)o1 [Compound 114, 1-{1-[8-(5-ethyl-1,3,4-oxadiazol-2-yl)-9-methyl-9H-purin-6-yl]piperidin-4-yl}-1,3-dihydro-2H-benzimidazol-2-one]	< 50
Cn1c(-c2cnn(CCO)c2)nc2c(N3CCC(n4c(=O)[nH]c5ccccc54)CC3)ncnc21 [Compound 178, 1-{1-(8-[1-(2-hydroxyethyl)-1H-pyrazol-4-yl]-9-methyl-9H-purin-6-yl}piperidin-4-yl)-1,3-dihydro-2H-benzimidazol-2-one]	50 to 250
Cc1ccc(CCNC(=O)c2nc3c(N4CCC(n5c(=O)[nH]c6ccccc65)CC4)ncnc3n2C)cc1 [Compound 64, 9-methyl-N-[2-(4-methylphenyl)ethyl]-6-[4-(2-oxo-2,3-dihydro-1H-benzimidazol-1-yl)piperidin-1-yl]-9H-purine-8-carboxamide]	500 to 1500
CC(C)c1nnc(-c2nc3c(N4CCC(n5c(=O)[nH]c6ccccc65)CC4)ncnc3n2C)o1 [Compound 122, 1-(1-{9-methyl-8-[5-(1-methylethyl)-1,3,4-oxadiazol-2-yl]-9H-purin-6-yl}piperidin-4-yl)-1,3-dihydro-2H-benzimidazol-2-one]	< 50
CCCCNC(=O)c1nc2c(N3CCC4(CC3)C(=O)Nc3ccccc34)ncnc2n1C [Compound 16, N-butyl-9-methyl-6-(2-oxo-1,2-dihydro-1′H-spiro[indole-3,4′-piperidin]-1′-yl)-9H-purine-8-carboxamide]	50 to 250
CCCCCCNC(=O)c1nc2c(N3CCC(n4c(=O)[nH]c5ccccc54)CC3)ncnc2n1C [Compound 71, N-hexyl-9-methyl-6-[4-(2-oxo-2,3-dihydro-1H-benzimidazol-1-yl)piperidin-1-yl]-9H-purine-8-carboxamide]	250 to 500
CCn1c(C(=O)NCC2CCOCC2)nc2c(N3CCC4(CC3)C(=O)Nc3ccccc34)ncnc21 [Compound 161, 9-ethyl-6-(2-oxo-1,2-dihydro-1′H-spiro[indole-3,4′-piperidin]-1′-yl)-N-(tetrahydro-2H-pyran-4-ylmethyl)-9H-purine-8-carboxamide]	< 50
CCn1c(C(=O)NC2CCC2)nc2c(N3CCC4(CC3)C(=O)Nc3ccccc34)ncnc21 [Compound 221, N-cyclobutyl-9-ethyl-6-(2-oxo-1,2-dihydro-1′H-spiro[indole-3,4′-piperidin]-1′-yl)-9H-purine-8-carboxamide]	< 50
CCn1c(C(=O)NCC(C)C)nc2c(N3CCC4(CC3)C(=O)Nc3ccccc34)ncnc21 [Compound 164, 9-ethyl-N-(2-methylpropyl)-6-(2-oxo-1,2-dihydro-1′H-spiro[indole-3,4′-piperidin]-1′-yl)-9H-purine-8-carboxamide]	< 50
